Data: US20220306695A1, “COMPSTATIN ANALOGUES AND THEIR MEDICAL USES” (priority 2019, published 2022)
Starred links: 1 amine or outer side, 2 acyl side, 3 side chain; linkers in the order of their positions; H or OH if unused. Positions of bridges follow the written chain, without caps; N, C: chain ends. Non-standard residues stand in square brackets, D forms with d. Residues, ends and D or L forms follow the SMILES beside them. Groups on a side chain read outwards from the residue. *: point of attachment. Trp(1-Me) = Cn1cc(C[C@H](N)C(=O)O)c2ccccc21; C18 diacid = O=C(O)CCCCCCCCCCCCCCCCC(=O)*; C16 diacid = O=C(O)CCCCCCCCCCCCCCC(=O)*; γGlu = O=C(O)[C@H](CCC(=O)[*:2])N[*:1]; AEEA = NCCOCCOCC(=O)O; Sar = CNCC(=O)O

Tests used:
[1] = tested on: classical complement pathway; assay: In vitro haemolysis assay (inhibition of classical complement pathway); assay type: cell-based, human; details: Table 3; human serum, sensitized sheep red blood cells; read-out: IC50[nM], in vitro analysis of inhibition of hemolysis
In short: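 Serially diluted compound (9 points) was preincubated 15 min at room temperature with diluted human serum, titrated per batch to give 70-90% maximal haemolysis, in Tris/casein buffer pH 7.4 with Mg2+/Ca2+. Antibody-sensitized sheep erythrocytes were then added for 30 min at 37° C, and the reaction was stopped with EDTA. Haemolysis was read at A405, with IC50 from 4PL fit.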

[2] = Solubility test at 10 mg/mL (visual inspection and light scattering); assay type: physicochemical; details: for Solubility, Condition 1 Acetate pH 4: 10 mg/mL compound in 100 mM acetate pH 4; for Solubility, Condition 2 Acetate pH 5: 10 mg/mL compound in 100 mM acetate pH 5; for Solubility, Condition 3 Phosphate pH 6: 10 mg/mL compound in 100 mM phosphate pH 6; for Solubility, Condition 4 Phosphate pH 7: 10 mg/mL compound in 100 mM phosphate pH 7; for Solubility, Condition 5 Phosphate pH 7.5: 10 mg/mL compound in 100 mM phosphate pH 7.5

Compound | IC50 [1] [nM] | Solubility, Condition 1 Acetate pH 4 [2] | Solubility, Condition 2 Acetate pH 5 [2] | Solubility, Condition 3 Phosphate pH 6 [2] | Solubility, Condition 4 Phosphate pH 7 [2] | Solubility, Condition 5 Phosphate pH 7.5 [2]
CC[C@H](C)[C@@H]1NC(=O)[C@@H](NC(=O)CN(C)C(=O)[C@H](CCC(=O)O)NC(=O)[C@H](CO)NC(C)=O)CSSC[C@@H](C(=O)N(C)CC(=O)N[C@@H](CCC(=O)O)C(=O)N[C@@H](C)C(N)=O)NC(=O)[C@H](CCCNC(=N)N)NC(=O)[C@H](Cc2c[nH]cn2)NC(=O)[C@H](CCC(=O)O)NC(=O)CNC(=O)[C@H](Cc2c[nH]c3ccccc23)NC(=O)[C@H](CC(=O)O)NC(=O)[C@H](CCC(N)=O)NC(=O)[C@H](Cc2cn(C)c3ccccc23)NC1=O [Compound 81] (Ac-SE[Sar]CI[Trp(1-Me)]QDWGEHRC[Sar]EA-NH2; disulfide 4-14) | < 100 | − (denotes lack of solubility at the given condition, as UV absorbance at 340 nm exceeds 0.1 AU and/or it is visibly turbid or contains particles.) | − (denotes lack of solubility at the given condition, as UV absorbance at 340 nm exceeds 0.1 AU and/or it is visibly turbid or contains particles.) | + (denotes solubility at the given condition, as determined by UV absorbance being less than 0.1 AU at 340 nm and the sample being clear when manually inspected.) | + (denotes solubility at the given condition, as determined by UV absorbance being less than 0.1 AU at 340 nm and the sample being clear when manually inspected.) | + (denotes solubility at the given condition, as determined by UV absorbance being less than 0.1 AU at 340 nm and the sample being clear when manually inspected.)
CC[C@H](C)[C@@H]1NC(=O)[C@@H](NC(=O)[C@H](Cc2ccccc2)NC(C)=O)CSSC[C@@H](C(=O)N[C@H](C(=O)NCC(=O)N[C@@H](C)C(=O)N[C@@H](CCC(=O)O)C(=O)N[C@@H](CO)C(=O)N[C@@H](CCCCNC(=O)COCCOCCNC(=O)COCCOCCNC(=O)CC[C@H](NC(=O)CCCCCCCCCCCCCCC(=O)O)C(=O)O)C(N)=O)[C@@H](C)O)NC(=O)[C@H](CCCNC(=N)N)NC(=O)[C@H](Cc2c[nH]cn2)NC(=O)[C@H](CCC(=O)O)NC(=O)CNC(=O)[C@H](Cc2c[nH]c3ccccc23)NC(=O)[C@H](CC(=O)O)NC(=O)[C@H](CCC(N)=O)NC(=O)[C@H](Cc2cn(C)c3ccccc23)NC1=O [Compound 102] (Ac-FCI[Trp(1-Me)]QDWGEHRCTGAESK([AEEA-AEEA-γGlu-C16 diacid])-NH2; disulfide 2-12) | < 100 | − (denotes lack of solubility at the given condition, as UV absorbance at 340 nm exceeds 0.1 AU and/or it is visibly turbid or contains particles.) | + (denotes solubility at the given condition, as determined by UV absorbance being less than 0.1 AU at 340 nm and the sample being clear when manually inspected.) | + (denotes solubility at the given condition, as determined by UV absorbance being less than 0.1 AU at 340 nm and the sample being clear when manually inspected.) | + (denotes solubility at the given condition, as determined by UV absorbance being less than 0.1 AU at 340 nm and the sample being clear when manually inspected.) | + (denotes solubility at the given condition, as determined by UV absorbance being less than 0.1 AU at 340 nm and the sample being clear when manually inspected.)
CC[C@H](C)[C@@H]1NC(=O)[C@@H](NC(=O)[C@H](Cc2ccc(O)cc2)NC(=O)[C@H](C)NC(=O)[C@H](CO)NC(=O)CNC(=O)[C@H](CCC(=O)O)NC(C)=O)CSSC[C@@H](C(=O)N(C)CC(=O)N[C@@H](CCC(=O)O)C(N)=O)NC(=O)[C@H](CCCCNC(=O)COCCOCCNC(=O)COCCOCCNC(=O)CC[C@H](NC(=O)CCCCCCCCCCCCCCC(=O)O)C(=O)O)NC(=O)[C@H](Cc2c[nH]cn2)NC(=O)[C@H](CCC(=O)O)NC(=O)CNC(=O)[C@H](Cc2c[nH]c3ccccc23)NC(=O)[C@H](CC(=O)O)NC(=O)[C@H](CCC(N)=O)NC(=O)[C@H](Cc2cn(C)c3ccccc23)NC1=O [Compound 103, Ac-EGSAYC(1)I[1-Me-Trp]QDWGEH-[K([15-carboxy-pentadecanoyl][γGlu][Peg3][Peg3])]-C(1)[Sar]E-NH2] (Ac-EGSAYCI[Trp(1-Me)]QDWGEHK([AEEA-AEEA-γGlu-C16 diacid])C[Sar]E-NH2; disulfide 6-16) | < 100 | − (denotes lack of solubility at the given condition, as UV absorbance at 340 nm exceeds 0.1 AU and/or it is visibly turbid or contains particles.) | + (denotes solubility at the given condition, as determined by UV absorbance being less than 0.1 AU at 340 nm and the sample being clear when manually inspected.) | + (denotes solubility at the given condition, as determined by UV absorbance being less than 0.1 AU at 340 nm and the sample being clear when manually inspected.) | + (denotes solubility at the given condition, as determined by UV absorbance being less than 0.1 AU at 340 nm and the sample being clear when manually inspected.) | + (denotes solubility at the given condition, as determined by UV absorbance being less than 0.1 AU at 340 nm and the sample being clear when manually inspected.)
CC[C@H](C)[C@@H]1NC(=O)[C@@H](NC(=O)[C@H](Cc2ccc(O)cc2)NC(=O)[C@H](CCC(=O)O)NC(=O)[C@H](CO)NC(=O)CNC(=O)[C@H](CCC(=O)O)NC(=O)CCCCCCCCCCCCCCCCC(=O)O)CSSC[C@@H](C(=O)N(C)CC(=O)N[C@@H](CCC(=O)O)C(N)=O)NC(=O)[C@H](CCCNC(=N)N)NC(=O)[C@H](Cc2c[nH]cn2)NC(=O)[C@H](CCC(=O)O)NC(=O)CNC(=O)[C@H](Cc2c[nH]c3ccccc23)NC(=O)[C@H](CC(=O)O)NC(=O)[C@H](CCC(N)=O)NC(=O)[C@H](Cc2cn(C)c3ccccc23)NC1=O [Compound 108] ({C18 diacid}-EGSEYCI[Trp(1-Me)]QDWGEHRC[Sar]E-NH2; disulfide 6-16) | < 500 | − (denotes lack of solubility at the given condition, as UV absorbance at 340 nm exceeds 0.1 AU and/or it is visibly turbid or contains particles.) | − (denotes lack of solubility at the given condition, as UV absorbance at 340 nm exceeds 0.1 AU and/or it is visibly turbid or contains particles.) | + (denotes solubility at the given condition, as determined by UV absorbance being less than 0.1 AU at 340 nm and the sample being clear when manually inspected.) | + (denotes solubility at the given condition, as determined by UV absorbance being less than 0.1 AU at 340 nm and the sample being clear when manually inspected.) | + (denotes solubility at the given condition, as determined by UV absorbance being less than 0.1 AU at 340 nm and the sample being clear when manually inspected.)
CC[C@H](C)[C@@H]1NC(=O)[C@@H](NC(=O)[C@H](Cc2ccc(O)cc2)NC(=O)[C@H](C)NC(=O)[C@H](CO)NC(=O)CNC(=O)[C@H](CCC(=O)O)NC(C)=O)CSSC[C@@H](C(=O)N(C)CC(=O)N[C@@H](CCC(=O)O)C(=O)NCC(=O)N[C@@H](CCC(=O)O)C(=O)N[C@@H](CCCCNC(=O)CC[C@H](NC(=O)CNC(=O)CC[C@H](NC(=O)CCCCCCCCCCCCCCCCC(=O)O)C(=O)O)C(=O)O)C(N)=O)NC(=O)[C@H](CCCNC(=N)N)NC(=O)[C@H](Cc2c[nH]cn2)NC(=O)[C@H](CCC(=O)O)NC(=O)CNC(=O)[C@H](Cc2c[nH]c3ccccc23)NC(=O)[C@H](CC(=O)O)NC(=O)[C@H](CCC(N)=O)NC(=O)[C@H](Cc2cn(C)c3ccccc23)NC1=O [Compound 109] (Ac-EGSAYCI[Trp(1-Me)]QDWGEHRC[Sar]EGEK([γGlu-Gly-γGlu-C18 diacid])-NH2; disulfide 6-16) | < 250 | − (denotes lack of solubility at the given condition, as UV absorbance at 340 nm exceeds 0.1 AU and/or it is visibly turbid or contains particles.) | + (denotes solubility at the given condition, as determined by UV absorbance being less than 0.1 AU at 340 nm and the sample being clear when manually inspected.) | + (denotes solubility at the given condition, as determined by UV absorbance being less than 0.1 AU at 340 nm and the sample being clear when manually inspected.) | + (denotes solubility at the given condition, as determined by UV absorbance being less than 0.1 AU at 340 nm and the sample being clear when manually inspected.) | + (denotes solubility at the given condition, as determined by UV absorbance being less than 0.1 AU at 340 nm and the sample being clear when manually inspected.)
